Results as given in patent US20100267561A1, “HERBICIDAL PYRIDAZINONE DERIVATIVES” (priority 2007, published 2010).

Legend:
Assay in all cases: Test B pre-/postemergence plant response
Format in all cases: in vivo
[1] = tested on: common ragweed (Ambrosia elation)
Method in brief: (§1)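 Seeds were sown and sprayed preemergence, while plants at 2 to 18 cm (1- to 4-leaf stage) got postemergence sprays. Compounds were formulated in a non-phytotoxic solvent mixture with surfactant. After 13 to 15 days in a greenhouse, injury was rated visually against untreated controls, 0 (no effect) to 100 (complete control).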

[2] = tested on: green foxtail (Setaria viridis)
Method in brief: as §1

[3] = tested on: goosegrass (Eleusine indica)
Method in brief: as §1

[4] = tested on: catchweed bedstraw (Galium aparine); details: Preemergence
Method in brief: as §1

[5] = tested on: woolly cupgrass (Eriochloa villosa)
Method in brief: as §1

[6] = tested on: morningglory (Ipomoea coccinea)
Method in brief: as §1

corn (Zea mays) = tested on: corn (Zea mays)
Method in brief: as §1

[7] = tested on: surinam grass (Brachiaria decumbens)
Method in brief: as §1

wild oat (Avena fatua) = tested on: wild oat (Avena fatua)
Method in brief: as §1

[8] = tested on: lambsquarters (Chenopodium album)
Method in brief: as §1

[9] = tested on: pigweed (Amaranthus retroflexus)
Method in brief: as §1

[10] = tested on: blackgrass (Alopecurus myosuroides)
Method in brief: as §1

[11] = tested on: giant foxtail (Setaria faberii)
Method in brief: as §1

[12] = tested on: downy bromegrass (Bromus tectorum)
Method in brief: as §1

[13] = Postemergence, 31 g ai/ha, scale 0 to 100, 0 no effect, 100 complete control
[14] = Postemergence, 62 g ai/ha, scale 0 to 100
[15] = Postemergence, 125 g ai/ha, scale 0 to 100
[16] = Postemergence, 250 g ai/ha, scale 0 to 100
[17] = Preemergence, 31 g ai/ha, 0 to 100 scale, 0 no effect, 100 complete control
[18] = Preemergence, 62 g ai/ha, scale 0 to 100
[19] = Preemergence, 125 g ai/ha, scale 0 to 100
[20] = Preemergence, 250 g ai/ha, scale 0 to 100
[21] = Postemergence, 16 g ai/ha, scale 0 to 100
[22] = Preemergence, 16 g ai/ha, scale 0 to 100 (0 no effect, 100 complete control)

Cc1cc(-c2ccc(Br)cc2)nn1-c1c(OC(=O)C2CC2)cnn(C)c1=O [Compound 5]
Plant response rating, Ragweed [1, 13]: 0
Plant response rating, Ragweed [1, 14]: 0
Plant response rating, Ragweed [1, 15]: 60
Plant response rating, Ragweed [1, 16]: 65
Plant response rating, Ragweed [1, 17]: 0
Plant response rating, Ragweed [1, 18]: 0
Plant response rating, Ragweed [1, 19]: 0
Plant response rating, Ragweed [1, 20]: 10
Plant response rating, Foxtail, Green [2, 13]: 95
Plant response rating, Foxtail, Green [2, 14]: 100
Plant response rating, Foxtail, Green [2, 15]: 100
Plant response rating, Foxtail, Green [2, 16]: 100
Plant response rating, Foxtail, Green [2, 17]: 98
Plant response rating, Foxtail, Green [2, 18]: 100
Plant response rating, Foxtail, Green [2, 19]: 100
Plant response rating, Foxtail, Green [2, 20]: 100
Plant response rating, Goosegrass [3, 13]: 95
Plant response rating, Goosegrass [3, 14]: 95
Plant response rating, Goosegrass [3, 15]: 100
Plant response rating, Goosegrass [3, 16]: 100
Plant response rating, Goosegrass [3, 17]: 75
Plant response rating, Goosegrass [3, 18]: 100
Plant response rating, Goosegrass [3, 19]: 100
Plant response rating, Goosegrass [3, 20]: 100
Plant response rating, Galium ([4]; 125 g ai/ha, scale 0 to 100): 80
Plant response rating, Galium ([4]; 250 g ai/ha, scale 0 to 100): 90
Plant response rating, Cupgrass, Woolly [5, 13]: 95
Plant response rating, Cupgrass, Woolly [5, 14]: 100
Plant response rating, Cupgrass, Woolly [5, 15]: 100
Plant response rating, Cupgrass, Woolly [5, 16]: 100
Plant response rating, Cupgrass, Woolly [5, 17]: 50
Plant response rating, Cupgrass, Woolly [5, 18]: 90
Plant response rating, Cupgrass, Woolly [5, 19]: 100
Plant response rating, Cupgrass, Woolly [5, 20]: 100
Plant response rating, Morningglory [6, 13]: 0
Plant response rating, Morningglory [6, 14]: 0
Plant response rating, Morningglory [6, 15]: 0
Plant response rating, Morningglory [6, 16]: 0
Plant response rating, Morningglory [6, 17]: 0
Plant response rating, Morningglory [6, 18]: 0
Plant response rating, Morningglory [6, 19]: 0
Plant response rating, Morningglory [6, 20]: 0
Plant response rating, Corn (corn (Zea mays); [13]): 90
Plant response rating, Corn (corn (Zea mays); [14]): 100
Plant response rating, Corn (corn (Zea mays); [15]): 100
Plant response rating, Corn (corn (Zea mays); [16]): 100
Plant response rating, Corn (corn (Zea mays); [17]): 95
Plant response rating, Corn (corn (Zea mays); [18]): 95
Plant response rating, Corn (corn (Zea mays); [19]): 98
Plant response rating, Corn (corn (Zea mays); [20]): 100
Plant response rating, Surinam Grass [7, 13]: 100
Plant response rating, Surinam Grass [7, 14]: 100
Plant response rating, Surinam Grass [7, 15]: 100
Plant response rating, Surinam Grass [7, 16]: 100
Plant response rating, Surinam Grass [7, 17]: 100
Plant response rating, Surinam Grass [7, 18]: 100
Plant response rating, Surinam Grass [7, 19]: 100
Plant response rating, Surinam Grass [7, 20]: 100
Plant response rating, Oat, Wild (wild oat (Avena fatua); [13]): 95
Plant response rating, Oat, Wild (wild oat (Avena fatua); [14]): 100
Plant response rating, Oat, Wild (wild oat (Avena fatua); [15]): 100
Plant response rating, Oat, Wild (wild oat (Avena fatua); [16]): 100
Plant response rating, Oat, Wild (wild oat (Avena fatua); [17]): 30
Plant response rating, Oat, Wild (wild oat (Avena fatua); [18]): 70
Plant response rating, Oat, Wild (wild oat (Avena fatua); [19]): 80
Plant response rating, Oat, Wild (wild oat (Avena fatua); [20]): 95
Plant response rating, Lambsquarters [8, 13]: 0
Plant response rating, Lambsquarters [8, 14]: 20
Plant response rating, Lambsquarters [8, 15]: 80
Plant response rating, Lambsquarters [8, 16]: 80
Plant response rating, Lambsquarters [8, 19]: 90
Plant response rating, Lambsquarters [8, 20]: 100
Plant response rating, Pigweed [9, 13]: 0
Plant response rating, Pigweed [9, 14]: 0
Plant response rating, Pigweed [9, 15]: 45
Plant response rating, Pigweed [9, 16]: 45
Plant response rating, Pigweed [9, 17]: 0
Plant response rating, Pigweed [9, 18]: 0
Plant response rating, Pigweed [9, 19]: 80
Plant response rating, Pigweed [9, 20]: 100
Blackgrass plant response rating ([10]; 250 g ai/ha, preemergence, 0-100 scale): 100
Plant response rating, Blackgrass [10, 13]: 95
Plant response rating, Blackgrass [10, 14]: 100
Plant response rating, Blackgrass [10, 15]: 100
Plant response rating, Blackgrass [10, 16]: 100
Plant response rating, Blackgrass [10, 17]: 100
Plant response rating, Blackgrass [10, 18]: 100
Plant response rating, Blackgrass [10, 19]: 100
Plant response rating, Foxtail, Giant [11, 13]: 100
Plant response rating, Foxtail, Giant [11, 14]: 100
Plant response rating, Foxtail, Giant [11, 15]: 100
Plant response rating, Foxtail, Giant [11, 16]: 100
Plant response rating, Foxtail, Giant [11, 17]: 98
Plant response rating, Foxtail, Giant [11, 18]: 100
Plant response rating, Foxtail, Giant [11, 19]: 100
Plant response rating, Foxtail, Giant [11, 20]: 100
Plant response rating, Bromegrass, Downy [12, 13]: 5
Plant response rating, Bromegrass, Downy [12, 14]: 50
Plant response rating, Bromegrass, Downy [12, 15]: 50
Plant response rating, Bromegrass, Downy [12, 17]: 40
Plant response rating, Bromegrass, Downy [12, 18]: 85
Plant response rating, Bromegrass, Downy [12, 19]: 98
Plant response rating, Bromegrass, Downy ([12]; Preemergence, 250 g ai/ha, scale 0 to 100 (0 no effect, 100 complete control)): 100

CCc1cc(-c2ccc(C(F)(F)F)cc2)nn1-c1c(OC(=O)OC(C)C)cnn(C)c1=O [Compound 12]
Plant response rating, Ragweed [1, 21]: 0
Plant response rating, Ragweed [1, 13]: 0
Plant response rating, Ragweed [1, 14]: 0
Plant response rating, Ragweed [1, 15]: 0
Plant response rating, Ragweed [1, 22]: 0
Plant response rating, Ragweed [1, 17]: 0
Plant response rating, Ragweed [1, 18]: 0
Plant response rating, Ragweed [1, 19]: 0
Plant response rating, Foxtail, Green [2, 21]: 85
Plant response rating, Foxtail, Green [2, 13]: 100
Plant response rating, Foxtail, Green [2, 14]: 100
Plant response rating, Foxtail, Green [2, 15]: 100
Plant response rating, Foxtail, Green [2, 22]: 100
Plant response rating, Foxtail, Green [2, 17]: 100
Plant response rating, Foxtail, Green [2, 18]: 100
Plant response rating, Foxtail, Green [2, 19]: 100
Plant response rating, Goosegrass [3, 21]: 100
Plant response rating, Goosegrass [3, 13]: 100
Plant response rating, Goosegrass [3, 14]: 100
Plant response rating, Goosegrass [3, 15]: 100
Plant response rating, Goosegrass [3, 22]: 40
Plant response rating, Goosegrass [3, 17]: 98
Plant response rating, Goosegrass [3, 18]: 100
Plant response rating, Goosegrass [3, 19]: 100
Plant response rating, Galium ([4]; 16 g ai/ha, scale 0 to 100 (0 no effect, 100 complete control)): 0
Plant response rating, Galium ([4]; 31 g ai/ha, 0 to 100 scale, 0 no effect, 100 complete control): 0
Plant response rating, Galium ([4]; 62 g ai/ha, scale 0 to 100): 0
Plant response rating, Galium ([4]; 125 g ai/ha, scale 0 to 100): 0
Plant response rating, Cupgrass, Woolly [5, 21]: 100
Plant response rating, Cupgrass, Woolly [5, 13]: 100
Plant response rating, Cupgrass, Woolly [5, 14]: 100
Plant response rating, Cupgrass, Woolly [5, 15]: 100
Plant response rating, Cupgrass, Woolly [5, 22]: 80
Plant response rating, Cupgrass, Woolly [5, 17]: 85
Plant response rating, Cupgrass, Woolly [5, 18]: 98
Plant response rating, Cupgrass, Woolly [5, 19]: 100
Plant response rating, Morningglory [6, 21]: 0
Plant response rating, Morningglory [6, 13]: 0
Plant response rating, Morningglory [6, 14]: 0
Plant response rating, Morningglory [6, 15]: 40
Plant response rating, Morningglory [6, 22]: 0
Plant response rating, Morningglory [6, 17]: 0
Plant response rating, Morningglory [6, 18]: 0
Plant response rating, Morningglory [6, 19]: 0
Plant response rating, Corn (corn (Zea mays); [21]): 100
Plant response rating, Corn (corn (Zea mays); [13]): 100
Plant response rating, Corn (corn (Zea mays); [14]): 100
Plant response rating, Corn (corn (Zea mays); [15]): 100
Plant response rating, Corn (corn (Zea mays); [22]): 70
Plant response rating, Corn (corn (Zea mays); [17]): 75
Plant response rating, Corn (corn (Zea mays); [18]): 95
Plant response rating, Corn (corn (Zea mays); [19]): 95
Plant response rating, Surinam Grass [7, 21]: 100
Plant response rating, Surinam Grass [7, 13]: 100
Plant response rating, Surinam Grass [7, 14]: 100
Plant response rating, Surinam Grass [7, 15]: 100
Plant response rating, Surinam Grass [7, 22]: 100
Plant response rating, Surinam Grass [7, 17]: 100
Plant response rating, Surinam Grass [7, 18]: 100
Plant response rating, Surinam Grass [7, 19]: 100
Plant response rating, Oat, Wild (wild oat (Avena fatua); [21]): 100
Plant response rating, Oat, Wild (wild oat (Avena fatua); [13]): 100
Plant response rating, Oat, Wild (wild oat (Avena fatua); [14]): 100
Plant response rating, Oat, Wild (wild oat (Avena fatua); [15]): 100
Plant response rating, Oat, Wild (wild oat (Avena fatua); [22]): 60
Plant response rating, Oat, Wild (wild oat (Avena fatua); [17]): 90
Plant response rating, Oat, Wild (wild oat (Avena fatua); [18]): 95
Plant response rating, Oat, Wild (wild oat (Avena fatua); [19]): 98
Plant response rating, Lambsquarters [8, 21]: 0
Plant response rating, Lambsquarters [8, 13]: 0
Plant response rating, Lambsquarters [8, 14]: 0
Plant response rating, Lambsquarters [8, 15]: 40
Plant response rating, Lambsquarters [8, 22]: 0
Plant response rating, Lambsquarters [8, 17]: 0
Plant response rating, Lambsquarters [8, 19]: 0
Plant response rating, Pigweed [9, 21]: 0
Plant response rating, Pigweed [9, 13]: 0
Plant response rating, Pigweed [9, 14]: 5
Plant response rating, Pigweed [9, 15]: 50
Plant response rating, Blackgrass [10, 21]: 100
Plant response rating, Blackgrass [10, 13]: 100
Plant response rating, Blackgrass [10, 14]: 100
Plant response rating, Blackgrass [10, 15]: 100
Plant response rating, Blackgrass [10, 22]: 98
Plant response rating, Blackgrass [10, 17]: 100
Plant response rating, Blackgrass [10, 18]: 100
Plant response rating, Blackgrass [10, 19]: 100
Plant response rating, Foxtail, Giant [11, 21]: 100
Plant response rating, Foxtail, Giant [11, 13]: 100
Plant response rating, Foxtail, Giant [11, 14]: 100
Plant response rating, Foxtail, Giant [11, 15]: 100
Plant response rating, Foxtail, Giant [11, 22]: 100
Plant response rating, Foxtail, Giant [11, 17]: 100
Plant response rating, Foxtail, Giant [11, 18]: 100
Plant response rating, Foxtail, Giant [11, 19]: 100
Plant response rating, Bromegrass, Downy [12, 21]: 85
Plant response rating, Bromegrass, Downy [12, 13]: 85
Plant response rating, Bromegrass, Downy [12, 14]: 85
Plant response rating, Bromegrass, Downy [12, 22]: 0
Plant response rating, Bromegrass, Downy [12, 17]: 0
Plant response rating, Bromegrass, Downy [12, 18]: 70
Plant response rating, Bromegrass, Downy [12, 19]: 75
